Data: patent US6054435A, “6-O-substituted macrolides having antibacterial activity” (priority 1999, dated 2000)
≈ marks a conversion by molar mass, not a printed value.

Key:
Experiment in all cases: in vitro antibacterial activity (MIC), agar dilution
Type in all cases: cell-based
[1] = system: Mycobacterium smegmatis ATCC 114; conditions: organism code UU; BHI agar, 35-37° C., 20 to 24 hours; unit assumed
Procedure, shortened: (§1)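 Agar dilution on BHI agar with twelve successive compound dilutions; plates inoculated by Steers replicator with 1:100 culture dilutions (1:10 for slow growers such as Streptococcus). MIC is the lowest concentration giving no growth, slight haze or sparse colonies versus a drug-free control.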

[2] = system: Streptococcus Pneumonia 5649; conditions: organism code ZZA; BHI agar, 35-37° C., 20 to 24 hours; unit assumed
Procedure, shortened: as §1

[3] = system: Streptococcus pyogenes 930; conditions: organism code MM; BHI agar, 35-37° C., 20 to 24 hours; unit assumed
Procedure, shortened: as §1

[4] = system: Staphylococcus epidermidis 3519; conditions: organism code HH; BHI agar, 35-37° C., 20 to 24 hours; unit assumed
Procedure, shortened: as §1

[5] = system: Streptococcus Pneumonia ATCC6303; conditions: organism code XX; BHI agar, 35-37° C., 20 to 24 hours; unit assumed
Procedure, shortened: as §1

[6] = system: Staphylococcus aureus CMX 553; conditions: organism code FF; BHI agar, 35-37° C., 20 to 24 hours; unit assumed
Procedure, shortened: as §1

[7] = system: Staphylococcus aureus CMX 642A; conditions: organism code DD; BHI agar, 35-37° C., 20 to 24 hours; unit assumed
Procedure, shortened: as §1

[8] = system: Escherichia coli SS; conditions: organism code RR; BHI agar, 35-37° C., 20 to 24 hours; unit assumed
Procedure, shortened: as §1

[9] = system: Candida albicans CCH 442; conditions: organism code TT; BHI agar, 35-37° C., 20 to 24 hours; unit assumed
Procedure, shortened: as §1

[10] = system: Staphylococcus aureus A5177; conditions: organism code BB; BHI agar, 35-37° C., 20 to 24 hours; unit assumed
Procedure, shortened: as §1

[11] = system: Streptococcus agalactiae CMX 508; conditions: organism code KK; BHI agar, 35-37° C., 20 to 24 hours; unit assumed
Procedure, shortened: as §1

[12] = system: Staphylococcus aureus ATCC 6538P; conditions: organism code AA; BHI agar, 35-37° C., 20 to 24 hours; unit assumed
Procedure, shortened: as §1

[13] = system: Micrococcus luteus ATCC 4698; conditions: organism code PP; BHI agar, 35-37° C., 20 to 24 hours; unit assumed
Procedure, shortened: as §1

[14] = system: Staphylococcus aureus 1775; conditions: organism code GG; BHI agar, 35-37° C., 20 to 24 hours; unit assumed
Procedure, shortened: as §1

[15] = system: Haemophilis Influenzae DILL AMP R; conditions: organism code WW; BHI agar, 35-37° C., 20 to 24 hours; unit assumed
Procedure, shortened: as §1

[16] = system: Streptococcus pyogenes EES61; conditions: organism code LL; BHI agar, 35-37° C., 20 to 24 hours; unit assumed
Procedure, shortened: as §1

[17] = system: Streptococcus bovis A-5169; conditions: organism code JJ; BHI agar, 35-37° C., 20 to 24 hours; unit assumed
Procedure, shortened: as §1

[18] = system: Enterococcus faecium ATCC 8043; conditions: organism code II; BHI agar, 35-37° C., 20 to 24 hours; unit assumed
Procedure, shortened: as §1

[19] = system: Staphylococcus aureus A-5278; conditions: organism code CC; BHI agar, 35-37° C., 20 to 24 hours; unit assumed
Procedure, shortened: as §1

[20] = system: Streptococcus Pneumonia 5979; conditions: organism code ZZ; BHI agar, 35-37° C., 20 to 24 hours; unit assumed
Procedure, shortened: as §1

[21] = system: Streptococcus pyogenes PIU 2548; conditions: organism code NN; BHI agar, 35-37° C., 20 to 24 hours; unit assumed
Procedure, shortened: as §1

[22] = system: Nocardia Asteroides ATCC9970; conditions: organism code VV; BHI agar, 35-37° C., 20 to 24 hours; unit assumed
Procedure, shortened: as §1

[23] = system: Escherichia coli JUHL; conditions: organism code QQ; BHI agar, 35-37° C., 20 to 24 hours; unit assumed
Procedure, shortened: as §1

[24] = system: Escherichia coli DC-2; conditions: organism code SS; BHI agar, 35-37° C., 20 to 24 hours; unit assumed
Procedure, shortened: as §1

[25] = system: Streptococcus Pneumonia GYR 1171; conditions: organism code YY; BHI agar, 35-37° C., 20 to 24 hours; unit assumed
Procedure, shortened: as §1

[26] = system: Micrococcus luteus ATCC 9341; conditions: organism code OO; BHI agar, 35-37° C., 20 to 24 hours; unit assumed
Procedure, shortened: as §1

[27] = system: Staphylococcus aureus NCTC10649M; conditions: organism code EE; BHI agar, 35-37° C., 20 to 24 hours; unit assumed
Procedure, shortened: as §1

Compound	MIC [1]	MIC [2]	MIC [3]	MIC [4]	MIC [5]	MIC [6]	MIC [7]	MIC [8]	MIC [9]	MIC [10]	MIC [11]	MIC [12]	MIC [13]	MIC [14]	MIC [15]	MIC [16]	MIC [17]	MIC [18]	MIC [19]	MIC [20]	other results
CC[C@H]1OC(=O)[C@H](C)C(=O)[C@H](C)[C@@H](O[C@@H]2O[C@H](C)C[C@H](N(C)C)[C@H]2O)[C@](C)(OC/C=C/c2cncc(-c3ncccn3)c2)C[C@@H](C)C(=O)[C@H](C)[C@H]2NC(=O)O[C@@]21C [Example 46]	6.2 µg/mL (≈ 7.81 µM)	0.5 µg/mL (≈ 0.63 µM)	12.5 µg/mL (≈ 15.7 µM)	0.1 µg/mL (≈ 0.126 µM)	0.03 µg/mL (≈ 0.0378 µM)	0.2 µg/mL (≈ 0.252 µM)	0.2 µg/mL (≈ 0.252 µM)	0.39 µg/mL (≈ 0.491 µM)	> 100 µg/mL	0.2 µg/mL (≈ 0.252 µM)	0.02 µg/mL (≈ 0.0252 µM)	0.1 µg/mL (≈ 0.126 µM)	0.2 µg/mL (≈ 0.252 µM)	> 100 µg/mL	4 µg/mL (≈ 5.04 µM)	0.02 µg/mL (≈ 0.0252 µM)	0.01 µg/mL (≈ 0.0126 µM)	0.05 µg/mL (≈ 0.063 µM)	> 100 µg/mL	128 µg/mL (≈ 161 µM)	MIC [21]: 0.2 µg/mL (≈ 0.252 µM); MIC [22]: 0.05 µg/mL (≈ 0.063 µM); MIC [23]: 50 µg/mL (≈ 63 µM); MIC [24]: 100 µg/mL (≈ 126 µM); MIC [25]: 0.03 µg/mL (≈ 0.0378 µM); MIC [26]: 0.05 µg/mL (≈ 0.063 µM); MIC [27]: 0.2 µg/mL (≈ 0.252 µM)
CC[C@H]1OC(=O)[C@H](C)C(=O)[C@H](C)[C@@H](O[C@@H]2O[C@H](C)C[C@H](N(C)C)[C@H]2O)[C@](C)(OCC#Cc2ccc(-c3cccc(C)c3)s2)C[C@@H](C)C(=O)[C@H](C)[C@H]2NC(=O)O[C@@]21C [Example 18]	0.1 µg/mL (≈ 0.124 µM)	0.5 µg/mL (≈ 0.618 µM)	1.56 µg/mL (≈ 1.93 µM)	0.2 µg/mL (≈ 0.247 µM)	0.06 µg/mL (≈ 0.0742 µM)	0.1 µg/mL (≈ 0.124 µM)	0.1 µg/mL (≈ 0.124 µM)	0.78 µg/mL (≈ 0.964 µM)	> 100 µg/mL	0.1 µg/mL (≈ 0.124 µM)	0.02 µg/mL (≈ 0.0247 µM)	0.1 µg/mL (≈ 0.124 µM)	0.2 µg/mL (≈ 0.247 µM)	12.5 µg/mL (≈ 15.5 µM)	2 µg/mL (≈ 2.47 µM)	0.02 µg/mL (≈ 0.0247 µM)	0.01 µg/mL (≈ 0.0124 µM)	0.1 µg/mL (≈ 0.124 µM)	25 µg/mL (≈ 30.9 µM)	2 µg/mL (≈ 2.47 µM)	MIC [21]: 0.2 µg/mL (≈ 0.247 µM); MIC [22]: 0.1 µg/mL (≈ 0.124 µM); MIC [23]: > 100 µg/mL; MIC [24]: > 100 µg/mL; MIC [25]: 0.03 µg/mL (≈ 0.0371 µM); MIC [26]: 0.02 µg/mL (≈ 0.0247 µM); MIC [27]: 0.2 µg/mL (≈ 0.247 µM)
CC[C@H]1OC(=O)[C@H](C)C(=O)[C@H](C)[C@@H](O[C@@H]2O[C@H](C)C[C@H](N(C)C)[C@H]2O)[C@](C)(OC/C=C/c2cnc(-c3cnccn3)s2)C[C@@H](C)C(=O)[C@H](C)[C@H]2NC(=O)O[C@@]21C [Example 58]	1.56 µg/mL (≈ 1.95 µM)	0.25 µg/mL (≈ 0.313 µM)	3.1 µg/mL (≈ 3.88 µM)	0.1 µg/mL (≈ 0.125 µM)	≤ 0.004 µg/mL	0.05 µg/mL (≈ 0.0625 µM)	0.1 µg/mL (≈ 0.125 µM)	0.2 µg/mL (≈ 0.25 µM)	> 100 µg/mL	0.05 µg/mL (≈ 0.0625 µM)	0.02 µg/mL (≈ 0.025 µM)	0.1 µg/mL (≈ 0.125 µM)	0.05 µg/mL (≈ 0.0625 µM)	> 100 µg/mL	4 µg/mL (≈ 5 µM)	0.02 µg/mL (≈ 0.025 µM)	0.01 µg/mL (≈ 0.0125 µM)	0.02 µg/mL (≈ 0.025 µM)	> 100 µg/mL	4 µg/mL (≈ 5 µM)	MIC [21]: 0.1 µg/mL (≈ 0.125 µM); MIC [22]: 0.02 µg/mL (≈ 0.025 µM); MIC [23]: 50 µg/mL (≈ 62.5 µM); MIC [24]: 100 µg/mL (≈ 125 µM); MIC [25]: ≤ 0.004 µg/mL; MIC [26]: 0.01 µg/mL (≈ 0.0125 µM); MIC [27]: 0.1 µg/mL (≈ 0.125 µM)
CC[C@H]1OC(=O)[C@H](C)C(=O)[C@H](C)[C@@H](O[C@@H]2O[C@H](C)C[C@H](N(C)C)[C@H]2O)[C@](C)(OCC#Cc2ccc(-c3ccccc3)s2)C[C@@H](C)C(=O)[C@H](C)[C@H]2NC(=O)O[C@@]21C [Example 13]	1.56 µg/mL (≈ 1.96 µM)	2 µg/mL (≈ 2.52 µM)	100 µg/mL (≈ 126 µM)	0.78 µg/mL (≈ 0.981 µM)	0.25 µg/mL (≈ 0.314 µM)	0.39 µg/mL (≈ 0.491 µM)	0.39 µg/mL (≈ 0.491 µM)	3.1 µg/mL (≈ 3.9 µM)	> 100 µg/mL	0.39 µg/mL (≈ 0.491 µM)	0.1 µg/mL (≈ 0.126 µM)	0.39 µg/mL (≈ 0.491 µM)	0.2 µg/mL (≈ 0.252 µM)	> 100 µg/mL	32 µg/mL (≈ 40.3 µM)	0.02 µg/mL (≈ 0.0252 µM)	0.05 µg/mL (≈ 0.0629 µM)	0.05 µg/mL (≈ 0.0629 µM)	> 100 µg/mL	4 µg/mL (≈ 5.03 µM)	MIC [21]: 0.39 µg/mL (≈ 0.491 µM); MIC [22]: 0.78 µg/mL (≈ 0.981 µM); MIC [23]: > 100 µg/mL; MIC [24]: > 100 µg/mL; MIC [25]: 0.25 µg/mL (≈ 0.314 µM); MIC [26]: 0.05 µg/mL (≈ 0.0629 µM); MIC [27]: 0.78 µg/mL (≈ 0.981 µM)
